Values quoted from earlier work in patent US6689400B2, “Process of obtaining compositions of stable lutein and lutein derivatives” (Sabinsa Corporation, priority 2001, dated 2004).

Key:
[1] = room temperature or higher
[2] = exposure to white fluorescent light, carefully controlled conditions

In the case of `CC1=C[C@H](O)CC(C)(C)[C@H]1/C=C/C(C)=C/C=C/C(C)=C/C=C/C=C(C)/C=C/C=C(C)/C=C/C1=C(C)C[C@@H](O)CC1(C)C` [lutein], the stability [1] is listed as “not stable” and the degradation of lutein [2] is listed as 0.8-10.7 % per day.
